# Data reported in patent US20200247812A1 (Integral Biosciences Private Limited, priority 2018, published 2020).
# Target: T1, ALK 5 (Homo sapiens, UniProt P36897)
# T1 sequence (P36897 34-503): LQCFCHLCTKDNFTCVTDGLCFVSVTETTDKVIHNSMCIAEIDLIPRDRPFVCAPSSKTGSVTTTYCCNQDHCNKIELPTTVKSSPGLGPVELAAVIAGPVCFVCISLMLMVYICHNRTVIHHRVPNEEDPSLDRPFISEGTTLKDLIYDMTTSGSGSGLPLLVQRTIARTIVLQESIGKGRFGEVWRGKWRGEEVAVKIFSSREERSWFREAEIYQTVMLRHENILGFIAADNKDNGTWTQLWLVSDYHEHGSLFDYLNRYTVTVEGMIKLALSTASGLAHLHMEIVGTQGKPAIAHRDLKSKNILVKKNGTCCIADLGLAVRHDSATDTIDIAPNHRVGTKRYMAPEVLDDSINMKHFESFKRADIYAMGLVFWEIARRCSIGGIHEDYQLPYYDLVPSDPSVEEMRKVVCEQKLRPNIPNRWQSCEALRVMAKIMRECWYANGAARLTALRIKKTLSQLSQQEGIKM
# Assay: In vitro kinase assay (ALK5 IC50, LanthaScreen Terbium labeled TR-FRET)
# Type: biochemical
# Conditions: TGF-β kinase 6 nM, ATP 10 μM, read-out: Enzyme Activity ALK 5 IC50
# Description: Compounds of the invention were screened in an in vitro kinase assay against ALK 5, a members of the TGF-β family of Ser/Thr kinases. Standard kinase testing conditions and techniques were employed. IC50 values of compounds against TGF-ß kinase was determined by LanthaScreen™ Terbium Labeled TR-FRET assay. Kinase assays were performed in 1X kinase buffer (# PV6135, Invitrogen, Life Technologies Grand Island, N.Y.) where total reaction volume was 10 μL in low-volume 384-well plates (#4511, Corning). Serially diluted compounds (3-fold) were incubated with TGF-β kinase (6 nM) for 10 min, following which a mixture of ATP (10 μM) (# A1852, Sigma, St-Louis, Mo.) and fluorescent-PolyGT substrate (200 nM); Cat # PV3610, Invitrogen, Life Technologies Grand Island, N.Y.) was added and incubated in dark at room temperature for 1 h. After 1 h, 10 μL stop solution containing Terbium labeled antibody (4 nM; Cat # PV3529, Invitrogen, Life Technologies Grand Island, N.Y.) and EDTA (# E5134, Sigma, St-Louis, Mo.; 20 mM) in TR-FRET dilution buffer (Cat # PV3574, Invitrogen, Life Technologies Grand Island, N.Y.) was added. Readings were taken in a Synergy Neo Plate reader (BioTek, Winooski) at single excitation of 340 nm and Dual emission at 495 nm and 520 nm respectively.
# The % activity of test samples was calculated as (Sample-Min)×100/(Max −Min). [Max: DMSO control, complete reaction with enzyme with DMSO and Min: No enzyme with DMSO]. Percent inhibition (100-% activity) was fitted to the “four-parameter logistic model” in XLfit for determination of IC50 values.
row,IC50 [nM],SMILES
1,500 to 2000,"COC(=O)c1cnccc1Nc1cc(-c2cc(Cl)ccc2F)c(=O)[nH]c1N(C)C [Compound 1.29, methyl 4-((5-(5-chloro-2-fluorophenyl)-2-(dimethylamino)-6-hydroxypyridin-3-yl)amino)nicotinate]"
2,≤ 500,"CC(C)c1[nH]c(=O)c(-c2cc(Cl)ccc2F)cc1Nc1ccncc1C(=O)NC[C@H](C)O [Compound 1.5, (S)-4-((5-(5-chloro-2-fluorophenyl)-2-isopropyl-6-oxo-1,6-dihydropyridin-3-yl)amino)-N-(2-hydroxypropyl)nicotinamide]"
3,> 5000,"CN(C)c1[nH]c(=O)c(-c2cc(Cl)ccc2F)cc1Nc1ccnc2c1ccn2C [Compound 1.28, 3-(5-chloro-2-fluorophenyl)-6-(dimethylamino)-5-((1-methyl-1H-pyrrolo[2,3-b]pyridin-4-yl)amino)pyridin-2(1H)-one]"
4,> 5000,"CC(=O)Nc1cc(Nc2cc(-c3ccc(F)nc3)c(=O)[nH]c2C(C)C)ccn1 [Compound 1.51, N-(4-((6′-fluoro-6-isopropyl-2-oxo-1,2-dihydro-[3,3′-bipyridin]-5-yl)amino)pyridin-2-yl)acetamide]"
5,≤ 500,"CC(=O)Nc1cc(Nc2cc(-c3ccc(F)c(Cl)c3)c(=O)[nH]c2C(C)C)ccn1 [Compound 1.58, N-(4-((5-(3-chloro-4-fluorophenyl)-2-isopropyl-6-oxo-1,6-dihydropyridin-3-yl)amino)pyridin-2-yl)acetamide]"
6,≤ 500,"O=c1[nH]c(C2CC2)c(Nc2ccnc3ccncc23)cc1-c1cc(Cl)ccc1F [Compound 1.67, 5-((1,6-naphthyridin-4-yl)amino)-3-(5-chloro-2-fluorophenyl)-6-cyclopropylpyridin-2(1H)-one]"
7,> 5000,"CC(=O)Nc1cc(Nc2cc(-c3cc(Cl)c(C)cc3F)c(=O)[nH]c2C(C)C)ccn1 [Compound 1.64, N-(4-((5-(5-chloro-2-fluoro-4-methylphenyl)-2-isopropyl-6-oxo-1,6-dihydropyridin-3-yl)amino)pyridin-2-yl)acetamide]"
8,> 5000,"CC(C)c1[nH]c(=O)c(-c2cc(Cl)ccc2F)cc1Nc1ccnc(NC(=O)C2CC2)c1 [Compound 1.45, N-(4-((5-(5-chloro-2-fluorophenyl)-2-isopropyl-6-oxo-1,6-dihydropyridin-3-yl)amino)pyridin-2-yl)cyclopropanecarboxamide]"
9,> 5000,"CN(C)c1[nH]c(=O)c(-c2cc(Cl)ccc2F)cc1Nc1ccnc2ccccc12 [Compound 1.16, 3-(5-chloro-2-fluorophenyl)-6-(dimethylamino)-5-(quinolin-4-ylamino)pyridin-2(1H)-one]"
10,≤ 500,"CCc1[nH]c(=O)c(-c2ccc(F)c(Cl)c2)cc1Nc1ccnc2[nH]ccc12 [Compound 1.90, 5-((1H-pyrrolo[2,3-b]pyridin-4-yl)amino)-3-(3-chloro-4-fluorophenyl)-6-ethylpyridin-2(1H)-one]"
11,2000 to 5000,"Cc1cnc(Nc2cc(Nc3cc(-c4cc(Cl)ccc4F)c(=O)[nH]c3C3CC3)ccn2)s1 [Compound 1.77, 3-(5-chloro-2-fluorophenyl)-6-cyclopropyl-5-((2-((5-methylthiazol-2-yl)amino)pyridin-4-yl)amino)pyridin-2(1H)-one]"
12,2000 to 5000,"CC(C)c1[nH]c(=O)c(-c2cc(Cl)ccc2F)cc1Nc1ccnc2ccncc12 [Compound 1.42, 5-((1,6-naphthyridin-4-yl)amino)-3-(5-chloro-2-fluorophenyl)-6-isopropylpyridin-2(1H)-one]"
13,2000 to 5000,"C[C@@H](CO)NC(=O)c1cnccc1Nc1cc(-c2cc(Cl)ccc2F)c(=O)n2c1N(C)CC2 [Compound 1.22, (S)-4-((6-(5-chloro-2-fluorophenyl)-1-methyl-5-oxo-1,2,3,5-tetrahydroimidazo[1,2-a]pyridin-8-yl)amino)-N-(1-hydroxypropan-2-yl)nicotinamide]"
14,> 5000,"CC(C)c1[nH]c(=O)c(-c2cc(Cl)ccc2F)cc1Nc1ccnc(NC(=O)CCC(F)(F)F)c1 [Compound 1.46, N-(4-((5-(5-chloro-2-fluorophenyl)-2-isopropyl-6-oxo-1,6-dihydropyridin-3-yl)amino)pyridin-2-yl)-4,4,4-trifluorobutanamide]"
15,> 5000,"CN(C)c1[nH]c(=O)c(-c2cc(Cl)ccc2F)cc1Nc1ccncc1C(=O)NC(C)(C)CO [Compound 1.31, 4-((5-(5-chloro-2-fluorophenyl)-2-(dimethylamino)-6-hydroxypyridin-3-yl)amino)-N-(1-hydroxy-2-methylpropan-2-yl)nicotinamide]"
16,≤ 500,"CC(C)c1[nH]c(=O)c(-c2ccc(F)c(Cl)c2)cc1Nc1ccnc2[nH]ncc12 [Compound 1.84, 5-((1H-pyrazolo[3,4-b]pyridin-4-yl)amino)-3-(3-chloro-4-fluorophenyl)-6-isopropylpyridin-2(1H)-one]"
17,≤ 500,"CNC(=O)c1cnccc1Nc1cc(-c2cc(Cl)ccc2F)c(=O)[nH]c1SC [Compound 1.39, 4-((5-(5-chloro-2-fluorophenyl)-2-(methylthio)-6-oxo-1,6-dihydropyridin-3-yl)amino)-N-methylnicotinamide]"
18,≤ 500,"CCc1[nH]c(=O)c(-c2cc(Cl)ccc2F)cc1Nc1ccnc2ccncc12 [Compound 1.71, 5-((1,6-naphthyridin-4-yl)amino)-3-(5-chloro-2-fluorophenyl)-6-ethylpyridin-2(1H)-one]"
19,≤ 500,"CCc1[nH]c(=O)c(-c2ccc(F)c(Cl)c2)cc1Nc1ccnc(NC(C)=O)c1 [Compound 1.88, N-(4-((5-(3-chloro-4-fluorophenyl)-2-ethyl-6-oxo-1,6-dihydropyridin-3-yl)amino)pyridin-2-yl)acetamide]"
20,> 5000,"CC(C)c1[nH]c(=O)c(-c2ccc(F)nc2)cc1Nc1ccnc2[nH]ccc12 [Compound 1.52, 5-((1H-pyrrolo[2,3-b]pyridin-4-yl)amino)-6′-fluoro-6-isopropyl-[3,3′-bipyridin]-2(1H)-one]"
21,≤ 500,"CNC(=O)c1cnccc1Nc1cc(-c2cc(Cl)ccc2F)c(=O)[nH]c1C1CC1 [Compound 1.68, 4-((5-(5-chloro-2-fluorophenyl)-2-cyclopropyl-6-oxo-1,6-dihydropyridin-3-yl)amino)-N-methylnicotinamide]"
22,2000 to 5000,"CC(C)c1[nH]c(=O)c(-c2ccccc2F)cc1Nc1ccncc1C(=O)NC[C@H](C)O [Compound 1.3, (S)-4-((5-(2-fluorophenyl)-2-isopropyl-6-oxo-1,6-dihydropyridin-3-yl)amino)-N-(2-hydroxypropyl)nicotinamide]"

# Test system: HCT116
# Assay: Cell viability assay (resazurin), HCT116
# Type: cell-based
# Conditions: Homo sapiens, HCT-116, 72-144 hr
# Description: Different cell lines such as pancreatic, (MIA PaCa-2; ATCC®CRL-1420™ & and Panc-1; CRL-1469™), liver carcinoma (HepG2; ATCC® HB-8065™), lung epithelial carcinoma (A549; ATCC® CCL-185™) and others were seeded in their respective medium (DMEM, Cat #10569044, MEM, Cat #41090036; RPMI, Cat #22400089; all with 10% FBS, Gibco, ThermoFisher) at a cell count of 3000 cells per 100 μl per well in a 96 well edge plate (167425; ThermoFisher). Cells were allowed to grow at 37° C. for 24 hr in 5% CO2 (culture conditions) in a Nuaire incubator (humidified). Serially diluted compounds (100 μl) were added to the culture plate 24 hr later and the cultures were further incubated in culture conditions for specified time depending on doubling time of specific cell line (ranging from 72-144 hr). Experiment was terminated at the completion of incubation time with the drug by replacing the medium with 100 μl of 1 mM of resazurin (R7017; Sigma) prepared in respective culture medium and the plates were further incubated in culture conditions for 4 hr. Fluorescence was then measured using a multimodal plate reader (Biotek Synergy Neo) at an excitation wavelength of 535 nm and emission wavelength of 590 nm to obtain relative fluorescence units. Data analysis was done by subtracting the background fluorescence (only medium blank) value from each reading and then normalizing with the vehicle control (DMSO treated cells) to obtain percent survival/proliferation. Percent survival at different doses was used to calculate IC50 by fitting the curve to the “four-parameter variable slope logistic model” using Prism Graph Pad.
row,IC50 [µM],SMILES
1,> 30,"COC(=O)c1cnccc1Nc1cc(-c2cc(Cl)ccc2F)c(=O)[nH]c1N(C)C [Compound 1.29, methyl 4-((5-(5-chloro-2-fluorophenyl)-2-(dimethylamino)-6-hydroxypyridin-3-yl)amino)nicotinate]"

# Test system: phosphorylation of Smad-2 in THP-1 cells
# Assay: Inhibition of phosphorylation of Smad-2 in THP-1 cells (Phospho-Smad2 ELISA)
# Type: cell-based
# Conditions: 3 μg
row,SMILES,% Inhibition of pSmad2 [%]
1,"CC(C)c1[nH]c(=O)c(-c2cc(Cl)ccc2F)cc1Nc1ccncc1C(=O)NC[C@H](C)O [Compound 1.5, (S)-4-((5-(5-chloro-2-fluorophenyl)-2-isopropyl-6-oxo-1,6-dihydropyridin-3-yl)amino)-N-(2-hydroxypropyl)nicotinamide]",47.3

# Same assay, conditions: 10 μg
row,SMILES,% Inhibition of pSmad2 [%]
1,"CC(C)c1[nH]c(=O)c(-c2cc(Cl)ccc2F)cc1Nc1ccncc1C(=O)NC[C@H](C)O [Compound 1.5, (S)-4-((5-(5-chloro-2-fluorophenyl)-2-isopropyl-6-oxo-1,6-dihydropyridin-3-yl)amino)-N-(2-hydroxypropyl)nicotinamide]",53.3
